One molecule from patent publication US12427192B2, “Water soluble adjuvant and composition containing same” (Sumitomo Pharma Co., Ltd., priority 2019, dated 2025) can be followed below.

The subject of the experiment is HLA-A*02:01/HLA-DRB1*01:01 transgenic mouse. The experiment can be described thus: Test 19: in vivo adjuvant activity (CTL and helper T-cell induction), cocktail vaccine n, IFNγ ELISPOT. To be noted: added to cocktail vaccine n, 0.04 nmol or 0.4 nmol per body, twice. How it is done: Evaluation of In Vivo Adjuvant Activity in HLA-A*02:01/HLA-DRB1*01:01 Transgenic Mouse
The in vivo adjuvant activity of the compound of Example 1 was evaluated in the following procedure. To a cocktail vaccine comprising Peptide SEQ ID No. 1 prepared in Reference example 1 and Peptide SEQ ID No. 17 prepared in Reference example 20 with a preliminarily-emulsified composition (hereinafter, referred to as “cocktail vaccine n”) was added the compound prepared in Example 1 to prepare each vaccine. The vaccine was administered to a HLA-A*02:01/HLA-DRB1*01:01 transgenic mouse (C57BL/6CrHLA-A2.1DR1), and the adjuvant activity of each vaccine was evaluated by the method of testing antigen-specific CTL and antigen-specific helper T-cell induction. Peptide SEQ ID No. 17 is a helper peptide derived from WT1 protein.
Specifically, Peptide SEQ ID No. 1 and Peptide SEQ ID No. 17 were dissolved in DMSO, and then diluted with water for injection to concentrations of Peptide SEQ ID No. 1 of 2 mg/mL and Peptide SEQ ID No. 17 of 4 mg/mL. The prepared peptide dilution was mixed with an equal volume of the preliminary emulsified composition prepared like Test 4 to give an emulsified product, cocktail vaccine n. […] Then, after removal of the supernatant from the wells, stained spots on the ELISPOT plate were counted.

As to `CCCCCNc1nc(N)nc(C)c1Cc1ccc(CN(C)CCOCCOCCOCCOCCO)cc1OC` [Example 1, 1-(4-{[2-amino-4-methyl-6-(pentylamino)pyrimidin-5-yl]methyl}-3-methoxyphenyl)-2-methyl-5,8,11,14-tetraoxa-2-azahexadecan-16-ol·trifluoroacetate], for the setting “FIG. 23”, the “CTL counts responsive to Peptide SEQ ID No. 1 compared with adding no compound” value was “more”. In addition, under “FIG. 24”, the “helper T-cell counts responsive to Peptide SEQ ID No. 17 compared with adding no compound” value is “more”.
